row,SMILES,melting point [°C]
1,COc1nc(Cl)c(C(C)C)c(OC)n1,23 to 24
2,NCC(O)C1=CC2(CCCC2)c2ccccc21 (stereo unspecified),76 to 78
3,COc1cc(OC(F)F)nc(N)n1,106 to 107
4,C=CCNc1nc(NCC)c2scc(C)c2n1,96 to 97
5,OC1CCN(c2cc3nc(S)[nH]c3cc2F)CC1,268 to 269
6,CC(CCCCO)Oc1c(I)cc(I)cc1I (stereo unspecified),79 to 80
7,CN1Cc2c(-c3nc(CN4Cc5ccccc5C4)no3)ncn2-c2ccccc2C1=O,155 to 160
8,COC1CCN(c2cccc(-c3cnc4[nH]cc(C(=O)C(C)(C)C)c4n3)c2)C1 (stereo unspecified),194 to 195
9,CC1c2ccccc2CC(O)Cc2ccccc21 (stereo unspecified),142 to 145
10,N#CCc1ccc(-n2cc(Cl)cn2)cc1Cl,140
11,Clc1ccc2[nH]cc(C3=CCN(CCCOc4cccc5[nH]ccc45)CC3)c2c1,198 to 202
12,CC(CC(=O)O)=NNC(=N)N,139 to 140
13,Cc1nn(C)c2nc3n(c(=O)c12)CCS3,229 to 230
14,COc1ccc(C#N)c(O)c1,169 to 171
15,Nc1c(Cl)ncnc1N[C@@H]1C=C[C@H](CO)C1,144 to 146
16,CN1C(=O)CN=C(C2CCCCC2)c2ccccc21,98 to 100
17,O=C(NCCCCC1N=C(c2ccccc2)OC1=O)OCc1ccccc1 (stereo unspecified),72 to 73
18,C=CCOc1ncc(F)c(O)n1,138 to 141
19,COC(=O)C1=CC(C)(C#N)N(c2cccc(Cl)c2Cl)N1 (stereo unspecified),66 to 67
20,CC(=O)N[C@@H](CO)C(=O)NCc1ccc(N)cc1,158 to 160
21,O=C(c1ccccc1)c1c(Cl)cc2n1CCC2C(=O)O (stereo unspecified),190
22,O=C1N(CC2CCCO2)c2cc3c(cc2C12COc1cc4c(cc12)CCO4)OCCO3 (stereo unspecified),220 to 225

# The remaining lines, values ahead:
row,melting point [°C],SMILES
1,78 to 80,C=CCSc1ccc(Oc2ccccc2C)nn1
2,> 275,Cc1ccc(S(=O)(=O)Nc2cccc(-c3nnc(-c4ccc(C(=O)O)cc4)o3)c2)cc1
3,146 to 148,CO[C@@H]1CN(CCCOc2ccc(F)cc2)CC[C@@H]1NC(=O)c1cc(Cl)c(N)cc1O (relative stereo)
4,157 to 159,NC1=NC2(CN(C(=O)OCc3ccccc3)C2)Nc2cccc(F)c21
5,123 to 126,COc1cc(OC)nc(Oc2cccc(Cl)c2C(=O)O)n1
6,207 to 209,Cc1cc(C(=O)NCc2cccc3c2C(=O)N(C2CCC(=O)NC2=O)C3=O)no1 (stereo unspecified)
7,127 to 130,O=C1c2ccccc2C(=O)N1C(Cc1ccccc1)C[PH](=O)O (stereo unspecified)
8,108 to 109,OC(c1ccc(F)cc1)(c1ccc(F)cc1)C1CCN(CCCOc2ccc(-c3ccccc3)cc2)CC1
9,297 to 299,Cc1ccc(NC(=O)c2ccc(C#N)cc2)cc1NC(=O)c1ccc(O)cc1
10,54 to 59,CC(C)(C)OC(=O)NCCC[C@H](NC(=O)OC(C)(C)C)C(=O)NCCCC(c1ccc(F)cc1)c1ccc(F)cc1
11,163 to 164,COc1cc(C(N)=O)ccc1OCCCN1CCC(c2noc3cc(F)ccc23)CC1
12,177 to 178,O=Cc1ccc2ccc3c4ccccc4ccc3c2c1
13,152,COC(=O)CNC(=O)c1cc2c(C(=O)CN(Cc3ccccc3)C(C)(C)C)ccc(OCc3ccccc3)c2[nH]1
14,234,Cc1cc(-c2cc(C(F)(F)F)nc(-c3ccnc(-c4cccc(S(N)(=O)=O)c4)c3)n2)ccc1Cl
15,126 to 128,COc1cc(C)c(S(=O)(=O)c2ccccc2C)cc1OC
16,189 to 190,COC(=O)c1ccc(/C=C\[C@@H]2C[C@@H](NS(=O)(=O)c3ccc(Cl)cc3)CN2)cc1
17,107 to 108,COc1ccc(-c2cc(=O)n(CC=Cc3ccc(F)cc3F)nc2-c2ccc(OC)cc2)cc1
18,193 to 195,O=S(=O)(/C=C/c1ccc(F)cc1F)CS(=O)(=O)/C=C/c1ccc(F)cc1F
19,173 to 175,CCN1C(=O)C(C(=O)Nc2cccc(C(=O)Nc3ccccc3)c2)c2cc(C(C)=O)ccc21 (stereo unspecified)

# — a melting point compilation (Tetko et al.; mined from patent text by program, amines drawn as free bases though some values may be those of a salt)
